Structures are written as SMILES. Converted amounts (≈) assume the structure as drawn. Where only a bound is given, the exact number is not on record here.

The subject of test [1] is Staphylococcus aureus. As to the kind of experiment: Antibacterial activity against methicillin-resistant Staphylococcus aureus. The test is classed as functional.
Test [2] deals with Epidermal growth factor receptor (Homo sapiens, UniProt P00533). Description: Inhibition of EGFR (unknown origin).
The species entered for another test is Mus musculus. As to the kind of experiment: Anticonvulsant activity in mouse assessed as protection against maximal electroshock-induced seizures. The test is classed as functional. For orientation: In the maximal electroshock model the usual endpoint is tonic extension of the hind limbs.
The subject of another test is Bacillus subtilis. As to the kind of experiment: Antibacterial activity against Bacillus subtilis. The test is classed as functional.
Another test deals with T1, Dihydrofolate reductase (Homo sapiens, UniProt P00374).
T1 sequence (P00374 whole entry): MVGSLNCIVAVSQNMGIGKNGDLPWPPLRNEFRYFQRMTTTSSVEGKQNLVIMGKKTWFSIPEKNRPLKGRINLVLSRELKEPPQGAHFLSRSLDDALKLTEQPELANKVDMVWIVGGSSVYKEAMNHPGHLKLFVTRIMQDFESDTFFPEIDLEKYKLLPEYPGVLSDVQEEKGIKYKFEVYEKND
Description: Inhibition of DHFR (unknown origin).

The subject of the next test is Candida albicans. Description: Antifungal activity against Candida albicans MTCC 183. The test is classed as functional.
The subject of test [3] is Staphylococcus aureus. Description: Antibacterial activity against Staphylococcus aureus MTCC 96. The test is classed as functional.
The test system of test [4] is Pseudomonas aeruginosa. As to the kind of experiment: Antibacterial activity against Pseudomonas aeruginosa MTCC 741. The test is classed as functional.
The subject of test [5] is Escherichia coli. As to the kind of experiment: Antibacterial activity against Escherichia coli MTCC 739. The test is classed as functional.
The next test concerns Saccharomyces cerevisiae. As to the kind of experiment: Antifungal activity against Saccharomyces cerevisiae. The test is classed as functional.
The nature of test [6]: Photocytotoxicity activity against human HL60 cells measured after UV irradiation. The test is classed as functional. The conditions noted are these: HL-60, light or radiation study.
Test [7] relates to Bacillus cereus. As to the kind of experiment: Antibacterial activity against Bacillus cereus MTCC 430. The test is classed as functional.
Test [8] has as its system Bacillus cereus. Description: Antibacterial activity against Bacillus cereus MTCC 430 assessed as zone of inhibition. The test is classed as functional.
Test [9] deals with Staphylococcus aureus. Description: Antibacterial activity against Staphylococcus aureus MTCC 96 assessed as zone of inhibition. The test is classed as functional.
Test [10] has as its system Klebsiella pneumoniae. As to the kind of experiment: Antibacterial activity against Klebsiella pneumoniae MTCC 109. The test is classed as functional.
Test [11] concerns Klebsiella pneumoniae. As to the kind of experiment: Antibacterial activity against Klebsiella pneumoniae MTCC 109 assessed as zone of inhibition. The test is classed as functional.
The subject of test [12] is Pseudomonas aeruginosa. Description: Antibacterial activity against Pseudomonas aeruginosa MTCC 741 assessed as zone of inhibition. The test is classed as functional.
The nature of test [13]: Cytotoxicity against human PC3 cells assessed as inhibition of cell growth. The test is classed as functional, cell-based. The conditions noted are these: PC-3.
For test [14], the target named is T2, Pro-cathepsin H (Homo sapiens) (UniProt P09668).
T2 sequence (whole entry): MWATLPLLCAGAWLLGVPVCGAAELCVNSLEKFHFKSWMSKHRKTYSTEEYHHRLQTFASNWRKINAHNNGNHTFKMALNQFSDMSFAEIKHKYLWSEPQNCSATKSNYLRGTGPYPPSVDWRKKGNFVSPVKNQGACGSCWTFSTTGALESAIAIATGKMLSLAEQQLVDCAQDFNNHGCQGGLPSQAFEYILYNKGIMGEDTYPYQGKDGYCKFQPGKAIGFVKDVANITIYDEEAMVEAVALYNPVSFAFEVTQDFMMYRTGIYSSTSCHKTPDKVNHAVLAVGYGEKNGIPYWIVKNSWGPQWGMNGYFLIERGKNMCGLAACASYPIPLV
As to the kind of experiment: Inhibition of Cathepsin H (unknown origin) at 1 x 10^-4 M.

In test [15] the test system is Staphylococcus aureus. As to the kind of experiment: Antibacterial activity against Staphylococcus aureus assessed as zone of inhibition. The test is classed as functional.
The test system of test [16] is Escherichia coli. Description: Antibacterial activity against Escherichia coli assessed as zone of inhibition. The test is classed as functional.
The nature of test [17]: Cytotoxicity against human CNE2 cells by MTT assay. The test is classed as functional, cell-based. The following applies: CNE-2.
Test [18] can be described thus: Cytotoxicity against human PC3 cells by MTT assay. The test is classed as functional, cell-based. The following applies: PC-3. (In general: Tetrazolium dyes change colour on reduction, which living cells bring about.)
For the next test, the system named is SMMC-7721. As to the kind of experiment: Cytotoxicity against human SMMC7721 cells by MTT assay. The test is classed as functional, cell-based.
Test [19] relates to HUVEC. Description: Inhibition of cell adhesion in HUVEC at 15 uM after 3 hrs at 37 degC. The test is classed as functional. The conditions noted are these: Homo sapiens.
Test [20] has as its system HUVEC. Description: Inhibition of cell adhesion in HUVEC at 30 uM after 3 hrs at 37 degC. The test is classed as functional. The conditions noted are these: Homo sapiens.
Test [21] concerns the target Cathepsin B (Homo sapiens) (UniProt P07858). As to the kind of experiment: Inhibition of Cathepsin B (unknown origin) at 0.50 x 10^-4 M.
For test [22], the system named is Mycobacterium tuberculosis. Description: Antimycobacterial activity against Mycobacterium tuberculosis H37Rv. The test is classed as functional.
A short description of test [23]: Antiproliferative activity against human breast cancer cells. The test is classed as functional, cell-based. The following applies: Cancer cell lines.
A short description of test [24]: Antiproliferative activity against human lung cancer cells. The following applies: Cancer cell lines. The test is classed as functional, cell-based.
Test [25] in a line: Antiproliferative activity against human colon cancer cells. The test is classed as functional, cell-based. The conditions noted are these: Cancer cell lines.
The target in test [26] is Cathepsin B (Homo sapiens) (UniProt P07858). As to the kind of experiment: Inhibition of Cathepsin B (unknown origin) at 1 x 10^-4 M.
Test [27] has the same target. As to the kind of experiment: Inhibition of Cathepsin B (unknown origin) at 0.1 x 10^-4 M.
For test [28], the target named is T2, Pro-cathepsin H (Homo sapiens). As to the kind of experiment: Inhibition of Cathepsin H (unknown origin) at 0.25 x 10^-4 M.

Sequence of Epidermal growth factor receptor (P00533 whole entry): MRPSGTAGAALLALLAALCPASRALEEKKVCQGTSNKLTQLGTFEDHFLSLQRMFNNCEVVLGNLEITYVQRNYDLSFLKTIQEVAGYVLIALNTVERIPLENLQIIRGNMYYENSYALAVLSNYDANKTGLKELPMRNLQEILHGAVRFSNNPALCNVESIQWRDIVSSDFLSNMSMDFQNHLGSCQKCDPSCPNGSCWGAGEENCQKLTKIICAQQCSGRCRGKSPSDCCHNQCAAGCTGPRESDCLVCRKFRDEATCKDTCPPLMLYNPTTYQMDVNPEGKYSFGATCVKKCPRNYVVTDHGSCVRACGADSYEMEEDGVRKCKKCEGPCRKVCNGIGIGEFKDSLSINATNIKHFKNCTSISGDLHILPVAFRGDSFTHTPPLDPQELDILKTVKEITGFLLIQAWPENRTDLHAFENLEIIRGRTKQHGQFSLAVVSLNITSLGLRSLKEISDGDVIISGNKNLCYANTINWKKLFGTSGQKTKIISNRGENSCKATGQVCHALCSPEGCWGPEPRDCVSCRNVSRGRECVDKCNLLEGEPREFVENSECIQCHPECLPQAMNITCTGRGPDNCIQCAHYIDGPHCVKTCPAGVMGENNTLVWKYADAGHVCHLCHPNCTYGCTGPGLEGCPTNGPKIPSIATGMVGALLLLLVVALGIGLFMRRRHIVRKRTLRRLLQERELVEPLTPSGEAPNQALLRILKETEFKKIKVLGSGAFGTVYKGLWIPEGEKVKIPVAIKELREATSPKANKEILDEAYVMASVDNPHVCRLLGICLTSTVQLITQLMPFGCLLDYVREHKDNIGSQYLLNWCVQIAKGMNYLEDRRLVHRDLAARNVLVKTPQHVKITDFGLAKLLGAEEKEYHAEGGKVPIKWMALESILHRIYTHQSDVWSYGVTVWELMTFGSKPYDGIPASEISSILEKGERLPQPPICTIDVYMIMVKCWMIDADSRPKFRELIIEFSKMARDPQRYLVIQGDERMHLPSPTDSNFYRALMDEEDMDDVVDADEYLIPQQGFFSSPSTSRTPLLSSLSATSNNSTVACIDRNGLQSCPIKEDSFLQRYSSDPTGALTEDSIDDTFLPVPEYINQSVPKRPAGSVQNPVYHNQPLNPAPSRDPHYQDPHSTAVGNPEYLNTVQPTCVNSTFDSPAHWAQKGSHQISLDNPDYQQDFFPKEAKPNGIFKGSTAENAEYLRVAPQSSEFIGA

For `Cn1c(=O)n(CCOC(=O)CNC(=O)c2ccc(F)cc2)c(=O)c2ccccc21`, inhibition of growth in the test with Staphylococcus aureus [1] (MIC) required 4 mg/L (≈ 10 µM).

`Clc1cc(Nc2ncnc3ccc(NC4=NC[C@@H](COc5ccccc5)O4)cc23)ccc1OCc1nccs1` gave a concentration for half-maximal inhibition (IC50) in test [2] of 0.95 µM.

On to `COc1cc2nc(/C=C/c3ccccc3Cl)n(-c3ccc(Br)cc3)c(=O)c2cc1OC`, for which the ED50 in the test listed under Mus musculus is 41.3 µmol/kg.

The molecule `CN[C@@H]1[C@H](O[C@H]2[C@H](O[C@H]3[C@H](O)[C@@H](O)[C@H](N=C(N)N)[C@@H](O)[C@@H]3N=C(N)N)O[C@@H](C)[C@]2(O)C=O)O[C@@H](CO)[C@H](O)[C@H]1O` [STREPTOMYCIN] yielded a minimal inhibitory concentration (MIC) in the test on Bacillus subtilis of 32 mg/L (≈ 55 µM).

Take `COc1cc2nc(/C=C/c3ccccc3Cl)n(-c3ccc([N+](=O)[O-])cc3)c(=O)c2cc1OC`: in the test filed under Mus musculus, the ED50 was found to be 41.3 µmol/kg.

As for `COc1cc(/C=C2\CCCc3c2nc(N)nc3-c2cc(OC)c(OC)c(OC)c2)cc(OC)c1OC`, on Dihydrofolate reductase, half-maximal inhibition (IC50) was put at 14 µM.

As for `O=c1c2ccccc2nc(-c2ccc(Cl)cc2)n1Cc1ccccc1`, the MIC with Candida albicans stood at 26.1 mg/L (≈ 75.3 µM); against Bacillus subtilis, 24.3 mg/L (≈ 70.1 µM); against Staphylococcus aureus [3], 25.6 mg/L (≈ 73.8 µM); in the test on Pseudomonas aeruginosa [4], 30.1 mg/L (≈ 86.8 µM); with Escherichia coli [5] it was 25.1 mg/L (≈ 72.4 µM); with Saccharomyces cerevisiae, 18.3 mg/L (≈ 52.8 µM).

On to `COc1cc2nc(/C=C/c3ccccc3Cl)n(-c3ccncc3)c(=O)c2cc1OC`, for which the median effective dose (ED50) in the test listed under Mus musculus amounted to 66.4 µmol/kg.

Regarding `CC1(C)CC(=O)C2=C(C1)N=C1Sc3ccccc3N1C2c1ccc(F)cc1` (centres undefined), the 50% growth inhibitory concentration (GI50) in test [6] was 0.9 µM.

As to `Cc1cccc(Oc2nc(-c3ccc(NC(=O)Nc4ccc(Br)cc4)cc3)nc3ccccc23)c1`, the minimum inhibitory concentration (MIC) with Candida albicans stood at 12.5 mg/L (≈ 23.8 µM); against Staphylococcus aureus [3], 6.25 mg/L (≈ 11.9 µM); against Bacillus cereus [7] it was 12.5 mg/L (≈ 23.8 µM); with Klebsiella pneumoniae [10] it was 12.5 mg/L (≈ 23.8 µM); against Pseudomonas aeruginosa [4], 25 mg/L (≈ 47.6 µM). The “inhibition zone (IZ)” value is on record as 26 mm with Bacillus cereus [8], 29 mm in the test on Staphylococcus aureus [9], 27 mm in the test on Klebsiella pneumoniae [11] and 25 mm with Pseudomonas aeruginosa [12].

In the case of `C[Se](=O)O` [METHYLSELENINIC ACID], in test [13], the IC50 was under 8.4 µM.

For `CN(C)c1ccc(/C=C2\CCCC3=C2NC(=O)NC3c2ccc(N(C)C)cc2)cc1` (centres undefined), the inhibition in test [14] amounted to 100%.

Molecule `COc1ccc(/C=C2\CCCc3c2nc(N)nc3-c2ccc(OC)c(OC)c2)cc1OC` showed an IC50 against Dihydrofolate reductase of 14 µM.

In the case of `Cn1c(=O)n(CCOC(=O)CNC(=O)/C=C/c2ccccc2)c(=O)c2ccccc21`, the MIC in the test with Bacillus subtilis and in the test with Staphylococcus aureus [1] was 4 mg/L (≈ 9.82 µM) in each case.

As to `Oc1ccc(/C=N/NC2=NC3=C(CCCC3)C(c3ccccc3)N2)cc1` (centres undefined), the “inhibition zone (IZ)” value in the test on Staphylococcus aureus [15] is 18 mm; in the test on Escherichia coli [16] it was 17 mm.

`CN(C)CCCNc1nc(-c2ccccc2NC(=O)CCN2CCN(C)CC2)nc2ccccc12`: the half-inhibitory concentration (IC50) in test [17] turned out to be 9.3 µM; in [18], 9.8 µM; in the test on SMMC-7721, 10.9 µM. The inhibition at 15 µM in the test with HUVEC [19] is 65.8%. The inhibition at 30 µM in the test with HUVEC [20] was 71.2%.

As to `COc1cc(/C=C2\CCCc3c2nc(C)nc3-c2cc(OC)c(OC)c(OC)c2)cc(OC)c1OC`, at Dihydrofolate reductase, the half-inhibitory concentration (IC50) worked out at 0.5 µM.

`S=C1NC2=C(CCC/C2=C\C=C\c2ccccc2)C(/C=C/c2ccccc2)N1` (centres undefined) registered an inhibition in test [21] of 100%.

`CC1(C)CC(=O)C2=C(C1)N=C1Sc3ccccc3N1C2c1ccccc1C(F)(F)F` (centres undefined) registered a GI50 in [6] of 0.9 µM.

As for `Clc1cc(Nc2ncnc3ccc(NC4=NC[C@H](COc5ccccc5)O4)cc23)ccc1OCc1nccs1`, in [2], the 50% inhibitory concentration (IC50) was found to be 1.21 µM.

For the molecule `Cn1c(=O)n(CCOC(=O)CNC(=O)c2ccco2)c(=O)c2ccccc21`, the lowest concentration to inhibit growth in the test with Bacillus subtilis (MIC) was 4 mg/L (≈ 10.8 µM).

For `Cc1cccc(Oc2nc(-c3ccc(NC(=S)Nc4ccc(Br)cc4)cc3)nc3ccccc23)c1`, the “inhibition (INH)” value in test [22] was determined as 99%. In [22] (Mycobacterium tuberculosis, H37Rv), this molecule displayed a minimum inhibitory concentration (MIC) of 12.5 mg/L (≈ 23.1 µM).

As for `O=c1c2ccccc2ncn1/N=C/c1ccc(O)c(O)c1O`, the half-inhibitory concentration (IC50) in test [23] is 0.14 µM; in [24], 0.079 µM; in test [25], 0.32 µM.

Turning to `COc1cc2nc(/C=C/c3ccccc3Cl)n(-c3ccccc3[N+](=O)[O-])c(=O)c2cc1OC`, the 50% effective dose (ED50) in the test listed under Mus musculus was 98.2 µmol/kg.

In the test with Bacillus subtilis, `COc1ccc(C(=O)NCC(=O)OCCn2c(=O)c3ccccc3n(C)c2=O)cc1` showed a minimal inhibitory concentration (MIC) of 4 mg/L (≈ 9.72 µM).

Regarding `O=C1NC2=C(CCC/C2=C\C=C\c2ccccc2)C(/C=C/c2ccccc2)N1` (centres undefined), the inhibition in [26] was determined as 100%; in test [27] it was 50%.

As for `CC[C@@]1(O)C(=O)OCc2c1cc1n(c2=O)Cc2cc3c(CN(C)C)c(O)ccc3nc2-1` [TOPOTECAN], the half-inhibitory concentration (IC50) in [13] was under 4 µM.

`CC1(C)CC(=O)C2=C(C1)N=C1Sc3ccccc3N1C2c1ccc(C(F)(F)F)cc1` (centres undefined) registered a concentration for 50% growth inhibition (GI50) in [6] of 0.9 µM.

On to `COc1ccc(/C=C2\CCCc3c2nc(C)nc3-c2ccc(OC)c(OC)c2)cc1OC`, for which, on Dihydrofolate reductase, 0.1 µM corresponded to half-maximal inhibition (IC50).

The molecule `Cn1c(=O)n(CCOC(=O)CNC(=O)c2ccc([N+](=O)[O-])cc2)c(=O)c2ccccc21` yielded an MIC against Staphylococcus aureus [1] of 4 mg/L (≈ 9.38 µM).

`CN(C)c1ccc(/C=C2\CCCC3=C2NC(=S)NC3c2ccc(N(C)C)cc2)cc1` (centres undefined) had an inhibition in test [28] of 100%.

Usually MIC stands for the lowest concentration that inhibits growth of the organism. Lower therefore signals greater potency. The term IC50 denotes the concentration at which inhibition is half-maximal. The ED50 is the midpoint of the dose-response relation. As usually defined, the GI50 is the concentration giving 50% growth inhibition. The inhibition is the share of the control response that was lost under treatment. Read a low inhibition as a response near the control.
